For 16 molecules, EC50 and IC50 results are on record in US20260364080A1, “PYRAZOLO-PYRIMIDINONE COMPOUNDS FOR USE IN METHODS OF INHIBITING WEE1 A KINASE” (Acrivon Therapeutics, Inc., priority 2023, published 2026).

In one experiment the test system is ACHN cells. The experiment can be described thus: Cell Titer Glo viability assay, ACHN cells. To be noted: Homo sapiens, 144 h, absolute EC50. The class given is cell-based. The procedure:
Each of an ACHN renal cell carcinoma cell line (ATCC) and a DAOY medulloblastoma cell line, and an A427 lung cancer line were cultured in Minimum Essential Medium Eagle supplemented with 10% fetal calf serum (Sigma), 1% Penicillin-Streptomycin and 10 mM HEPES buffer (HyClone). Cell cultures were kept in a humidified incubator at 37 °C and 5% CO2. Cells were routinely tested for Mycoplasma contamination.
ACHN cells, DAOY cells, or A427 cells were seeded at a density of 400, 250, or 500 cells per well respectively, in tissue culture treated 384 well plates (Corning Costar). After overnight incubation, cells were treated with drugs at concentrations ranging from 17 to 10 000 nM. Viability compared to untreated control was assessed at 144 h using Cell Titer Glo assay 2.0 (Promega). […] “NT” means the compounds was not tested in the indicated cells.
(ATP-based viability assays read luminescence as a measure of living cells.)

In experiment [1] the target is T1, Wee1A kinase (CDK1 Tyr15 phosphorylation in ACHN renal cell carcinoma cells) (Homo sapiens, UniProt P30291).
T1 construct: pCDK1 Tyr15 immunofluorescence read-out
T1 sequence (P30291 whole entry): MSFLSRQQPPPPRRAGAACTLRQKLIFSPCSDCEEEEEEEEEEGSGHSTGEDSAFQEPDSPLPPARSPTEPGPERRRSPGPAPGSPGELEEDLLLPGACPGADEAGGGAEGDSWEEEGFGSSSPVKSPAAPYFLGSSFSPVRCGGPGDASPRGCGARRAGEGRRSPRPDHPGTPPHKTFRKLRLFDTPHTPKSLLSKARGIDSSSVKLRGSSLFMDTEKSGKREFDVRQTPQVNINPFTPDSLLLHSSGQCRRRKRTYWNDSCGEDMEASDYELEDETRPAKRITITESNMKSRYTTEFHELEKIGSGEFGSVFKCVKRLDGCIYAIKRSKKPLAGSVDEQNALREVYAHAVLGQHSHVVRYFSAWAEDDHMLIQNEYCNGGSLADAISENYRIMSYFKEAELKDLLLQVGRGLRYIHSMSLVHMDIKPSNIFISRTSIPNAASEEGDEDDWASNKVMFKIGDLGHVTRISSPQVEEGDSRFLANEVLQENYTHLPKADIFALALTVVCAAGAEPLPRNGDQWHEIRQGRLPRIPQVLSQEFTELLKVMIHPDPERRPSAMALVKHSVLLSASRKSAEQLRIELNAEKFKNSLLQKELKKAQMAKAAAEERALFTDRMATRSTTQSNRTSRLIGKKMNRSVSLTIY
The experiment can be described thus: High-content imaging of pCdk1 Y15, Wee1A kinase target engagement in ACHN cells. The class given is cell-based. Put shortly:
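EC50 values come from the per-well fraction of cells with nuclear pCdk1 Y15 staining, normalised to DMSO control, by automated immunofluorescence imaging. Cells were ACHN renal carcinoma, treated 4 h with compound at 7–5,000 nM or 0.3–200 nM.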

For experiment [2], the target named is T2, Myt1 kinase (recombinant PMYT-1) (Homo sapiens, UniProt Q99640).
T2 construct: full length PMYT-1 was expressed by baculovirus in insect cells; purchased Invitrogen A30984; host or cells: insect cells (baculovirus)
T2 sequence (Q99640 1-499): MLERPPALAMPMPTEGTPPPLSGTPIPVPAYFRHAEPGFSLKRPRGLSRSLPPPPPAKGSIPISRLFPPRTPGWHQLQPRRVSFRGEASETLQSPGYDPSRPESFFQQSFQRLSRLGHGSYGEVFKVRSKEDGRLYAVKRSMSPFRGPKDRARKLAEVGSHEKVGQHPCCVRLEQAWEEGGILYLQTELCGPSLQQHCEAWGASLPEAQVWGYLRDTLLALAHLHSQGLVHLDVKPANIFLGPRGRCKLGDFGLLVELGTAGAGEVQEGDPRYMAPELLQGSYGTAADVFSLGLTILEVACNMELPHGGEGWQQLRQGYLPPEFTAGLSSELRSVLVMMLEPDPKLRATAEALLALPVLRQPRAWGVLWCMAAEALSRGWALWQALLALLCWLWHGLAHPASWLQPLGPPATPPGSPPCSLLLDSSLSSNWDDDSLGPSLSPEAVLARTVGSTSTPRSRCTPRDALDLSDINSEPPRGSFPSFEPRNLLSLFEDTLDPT
The experiment can be described thus: Myt1 kinase binding assay (LanthaScreen Eu Kinase Binding Assay). Summed up: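 Compound binding to Myt1 kinase was assessed using the LanthaScreen Eu Kinase Binding Assay. This europium-based binding format was applied to quantify how strongly each compound bound to the Myt1 enzyme, and the binding affinity was reported for each compound as an IC50 value.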
In general terms: In TR-FRET formats the signal depends on donor and acceptor labels being close together.

Experiment [3] deals with T3, recombinant human Wee1A kinase (Homo sapiens, UniProt P30291).
T3 construct: full length Wee1 kinase was expressed by baculovirus in insect cells; purchased Invitrogen PV3817; host or cells: insect cells (baculovirus)
T3 sequence (P30291 whole entry): as the sequence (P30291 whole entry) above
Description: Wee1A kinase binding assay (LanthaScreen Eu time-resolved FRET). Summed up: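 Full-length, baculovirus-expressed GST-tagged Wee1A (5 nM) was mixed with 2 nM Eu-anti-GST antibody, 30 nM kinase tracer 178 and compound (1% DMSO). Buffer was 50 mM HEPES pH 7.5, 10 mM MgCl2, 1 mM EGTA, 0.01% Brij-35, incubated 60 min at room temperature. TR-FRET 665/615 nm emission ratios from duplicates were curve-fitted.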

Setting [4] is: read-out: CDK1 Tyr15 Phosphorylation EC50, 4 h treatment, nuclear positivity for pCdk1 Y15 vs DMSO control.
Where [5] appears, read: Myt1 kinase Binding IC50, 3 nM tracer 178, 2.5 nM PMYT-1, 1 nM Eu-labeled antibody.
The mark [6] stands for this setting: 4 h treatment, nuclear positivity for pCdk1 Y15 vs DMSO control, read-out: CDK1 Tyr15 Phosphorylation EC50.
Setting [7] is: 3 nM tracer 178, 2.5 nM PMYT-1, 1 nM Eu-labeled antibody, read-out: Myt1 kinase Binding IC50.
Where [8] appears, read: 30 nM tracer 178, 5 nM Wee1A kinase, 2 nM Eu-labeled antibody, 60 minutes at room temperature, read-out: Wee1A kinase Binding IC50.

Where two headings read alike, the source gives them in different places.

For `C=CCn1c(=O)c2cnc(Nc3ccc4c(cnn4C)c3)nc2n1-c1cccc(N(C)C2CCNCC2)n1` [Compound 116, 1-[6-(N-methyl-N-4-piperidylamino)-2-pyridyl]-2-allyl-6-(1-methyl-1H-indazol-5-ylamino)-1,2-dihydro-3H-1,2,5,7-tetraazainden-3-one], the results for the EC50 (in the experiment on ACHN cells; in experiment [1] (setting [4])) were 100 to 500 nM and less than 100 nM, respectively. Further, the half-inhibitory concentration (IC50) – broadly, the concentration needed to halve the response being measured – is greater than 500 nM in experiment [2] (setting [5]) and less than 10 nM in experiment [3].
As for `C=CCn1c(=O)c2cnc(Nc3cnn(C)c3)nc2n1-c1cccc(O[C@H]2CN3CCC2CC3)n1` [Compound 172, 1-{6-[(3R)-1-azabicyclo[2.2.2]octan-3-yloxy]pyridin-2-yl}-6-[(1-methyl-1H-pyrazol-4-yl)amino]-2-(prop-2-en-1-yl)-1H,2H,3H-pyrazolo[3,4-d]pyrimidin-3-one], the concentration for a half-maximal effect (EC50) (in the experiment on ACHN cells; in experiment [1] (setting [4])) was greater than 1000 nM each time. For the same molecule, the IC50 in experiment [2] (setting [5]) is greater than 500 nM; in experiment [3], less than 10 nM.
As to `CCn1c(=O)c2cnc(Nc3cccc(C)c3)nc2n1-c1cccc(OC2CCNCC2)n1` [Compound 298, 2-ethyl-1-[6-(4-piperidyloxy)-2-pyridyl]-6-m-toluidino-1,2-dihydro-3H-1,2,5,7-tetraazainden-3-one], the EC50 (in the experiment on ACHN cells; in experiment [1] (setting [6])) was 100 to 500 nM each time. For the same molecule, the values for the half-inhibitory concentration (IC50) in experiment [2] (setting [7]) and in experiment [3] (setting [8]) were 100 to 500 nM and less than 10 nM, respectively.
As for `CCn1c(=O)c2cnc(Nc3ccc4c(cnn4C)c3)nc2n1-c1cccc(OC2CCNCC2)n1` [Compound 306, 2-ethyl-6-(1-methyl-1H-indazol-5-ylamino)-1-[6-(4-piperidyloxy)-2-pyridyl]-1,2-dihydro-3H-1,2,5,7-tetraazainden-3-one], the concentration giving a half-maximal response (EC50) (in the experiment with ACHN cells; in experiment [1] (setting [6])) was 100 to 500 nM in each case. Further, the half-maximal inhibitory concentration (IC50) in experiment [2] (setting [7]) is 20 to 100 nM; in experiment [3] (setting [8]) it was less than 10 nM.
`C=CCn1c(=O)c2cnc(Nc3ccc(F)cc3)nc2n1-c1cccc(OC2CCNCC2)n1` [Compound 304, 2-allyl-6-(p-fluorophenylamino)-1-[6-(4-piperidyloxy)-2-pyridyl]-1,2-dihydro-3H-1,2,5,7-tetraazainden-3-one]: the 50% effective concentration (EC50) (usually the concentration giving half of the maximal effect) with ACHN cells was 100 to 500 nM; in experiment [1] (setting [6]) it was less than 100 nM. Also, the concentration for half-maximal inhibition (IC50) in experiment [2] (setting [7]) was 20 to 100 nM; in experiment [3] (setting [8]) it was less than 10 nM.
For `C=CCn1c(=O)c2cnc(Nc3cccc(C#N)c3)nc2n1-c1cccc(OC2CCN(C)CC2)n1` [Compound 305, m-{2-allyl-1-[6-(1-methyl-4-piperidyloxy)-2-pyridyl]-3-oxo-1,2-dihydro-3H-1,2,5,7-tetraazainden-6-ylamino}benzonitrile], in that order: no more than 100 nM, less than 100 nM, 20 to 100 nM and less than 10 nM.
Consider `Cn1ccc2cc(Nc3ncc4c(=O)n(C)n(-c5cccc(OC6CCNCC6)n5)c4n3)ccc21` [Compound 336, 2-methyl-6-((1-methyl-1H-indol-5-yl)amino)-1-(6-(piperidin-4-yloxy)pyridin-2-yl)-1,2-dihydro-3H-pyrazolo[3,4-d]pyrimidin-3-one], for which the EC50 in the experiment on ACHN cells was 100 to 500 nM; in experiment [1] (setting [6]), less than 100 nM. The values for the IC50 in experiment [2] (setting [7]) and in experiment [3] (setting [8]) were 20 to 100 nM and less than 10 nM, respectively.
Regarding `C=CCn1c(=O)c2cnc(Nc3ccc4c(cnn4C)c3)nc2n1-c1cccc(N(C)C2CCN(C)CC2)n1` [Compound 118, 1-{6-[N-methyl(1-methyl-4-piperidyl)amino]-2-pyridyl}-2-allyl-6-(1-methyl-1H-indazol-5-ylamino)-1,2-dihydro-3H-1,2,5,7-tetraazainden-3-one], the EC50 with ACHN cells was no more than 100 nM; in experiment [1] (setting [4]) it was less than 100 nM. Also, the values for the IC50 in experiment [2] (setting [5]) and in experiment [3] were greater than 500 nM and less than 10 nM, respectively.
With `C=CCn1c(=O)c2cnc(Nc3ccc4c(cnn4C)c3)nc2n1-c1cccc(N[C@@H]2CCN(CC)C2)n1` [Compound 119, 1-(6-{[(3R)-1-ethylpyrrolidin-3-yl]amino}pyridin-2-yl)-6-[(1-methyl-1H-indazol-5-yl)amino]-2-(prop-2-en-1-yl)-1H,2H,3H-pyrazolo[3,4-d]pyrimidin-3-one], the half-maximal effective concentration (EC50) in the experiment with ACHN cells was no more than 100 nM; in experiment [1] (setting [6]), less than 100 nM. The IC50 in experiment [2] (setting [7]) was 100 to 500 nM; in experiment [3] (setting [8]), less than 10 nM.
As for `C=CCn1c(=O)c2cnc(Nc3ccc(OCC(F)(F)F)c(C)c3)nc2n1-c1cccc(NC2CCN(C)CC2)n1` [Compound 181, 2-allyl-1-[6-(1-methyl-4-piperidylamino)-2-pyridyl]-6-[4-(2,2,2-trifluoroethoxy)-3-toluidino]-1,2-dihydro-3H-1,2,5,7-tetraazainden-3-one], the EC50 in the experiment on ACHN cells is no more than 100 nM; in experiment [1] (setting [6]), less than 100 nM. Besides, the IC50 was 100 to 500 nM in experiment [2] (setting [7]) and less than 10 nM in experiment [3] (setting [8]).
For `[2H]C([2H])([2H])c1cccc(Nc2ncc3c(=O)n(CC=C)n(-c4cccc(OC5CCNCC5)n4)c3n2)c1` [Compound 334, 2-allyl-6-((3-(methyl-d3)phenyl)amino)-1-(6-(piperidin-4-yloxy)pyridin-2-yl)-1,2-dihydro-3H-pyrazolo[3,4-d]pyrimidin-3-one], in that order: no more than 100 nM, less than 100 nM, 20 to 100 nM and less than 10 nM.
For `C=CCn1c(=O)c2cnc(Nc3ccc(OCC(C)C)cc3)nc2n1-c1cccc(OC2CCNCC2)n1` [Compound 256, 2-allyl-6-((4-isobutoxyphenyl)amino)-1-(6-(piperidin-4-yloxy)pyridin-2-yl)-1,2-dihydro-3H-pyrazolo[3,4-d]pyrimidin-3-one], in that order: no more than 100 nM, less than 100 nM, less than 20 nM and less than 10 nM.
For `C=CCn1c(=O)c2cnc(Nc3ccc(F)cc3)nc2n1-c1ccnc(NC2CCN(C)CC2)n1` [Compound 312, 2-allyl-6-(p-fluorophenylamino)-1-[2-(1-methyl-4-piperidylamino)-4-pyrimidinyl]-1,2-dihydro-3H-1,2,5,7-tetraazainden-3-one], in that order: 100 to 500 nM, less than 100 nM, 100 to 500 nM and less than 10 nM.
Regarding `CCn1c(=O)c2cnc(Nc3ccc(C#N)cc3)nc2n1-c1cccc(OC2CCN(C)CC2)n1` [Compound 310, p-{2-ethyl-1-[6-(1-methyl-4-piperidyloxy)-2-pyridyl]-3-oxo-1,2-dihydro-3H-1,2,5,7-tetraazainden-6-ylamino}benzonitrile], the EC50 (in the experiment on ACHN cells; in experiment [1] (setting [6])) was 100 to 500 nM throughout. In addition, the results for the IC50 in experiment [2] (setting [7]) and in experiment [3] (setting [8]) were 20 to 100 nM and less than 10 nM, respectively.
As for `C=CCn1c(=O)c2cnc(Nc3ccc4c(cnn4C)c3)nc2n1-c1cccc(O[C@@H]2CCCNC2)n1` [Compound 103, 6-[(1-Methyl-1H-indazol-5-yl)amino]-1-{6-[(3R)-piperidin-3-yloxy]pyridin-2-yl}-2-(prop-2-en-1-yl)-1H,2H,3H-pyrazolo[3,4-d]pyrimidin-3-one; bis(trifluoroacetic acid)], the values for the EC50 (with ACHN cells; in experiment [1] (setting [6])) were 100 to 500 nM and less than 100 nM, respectively. The figures for the half-inhibitory concentration (IC50) in experiment [2] (setting [7]) and in experiment [3] (setting [8]) were 100 to 500 nM and less than 10 nM, respectively.
As to `C=CCn1c(=O)c2cnc(Nc3ccc(OCCCF)cc3)nc2n1-c1cccc(OC2CCNCC2)n1` [Compound 377], the EC50 was no more than 100 nM in the experiment with ACHN cells and less than 100 nM in experiment [1] (setting [6]). Besides, the half-inhibitory concentration (IC50) in experiment [2] (setting [7]) is less than 20 nM; in experiment [3] (setting [8]) it was less than 10 nM.
